ChEMBL document CHEMBL5380843 (J Med Chem, 2023)

What was measured:
[1] = Resistant factor, ratio of EC50 for antiviral activity against HIV-1 IIIB harboring reverse transcriptase Y188L mutant to EC50 for antiviral activity against wild type HIV-1 IIIB; format: functional
[2] = system: Human immunodeficiency virus 1; assay: Antiviral activity against wild type HIV-1 IIIB harboring reverse transcriptase […] mutant infected in human MT4 cells assessed as protection against virus-induced cytopathic effect incubated for 5 days by MTT assay; format: functional, organism-based; settings: Human immunodeficiency virus 1, IIIB, MT4, 120 h
[3] = target: Human immunodeficiency virus type 1 reverse transcriptase (Human immunodeficiency virus 1, UniProt Q72547); assay: Inhibition of recombinant wild type HIV-1 reverse transcriptase using DNA/RNA as substrate incubated for 40 mins by Pico-green dye based spectrofluorometric analysis
[4] = system: Human immunodeficiency virus 1; assay: Antiviral activity against wild type HIV-1 IIIB harboring reverse transcriptase E138K mutant infected in human MT4 cells assessed as protection against virus-induced cytopathic effect incubated for 5 days by MTT assay; format: functional, organism-based; settings: Human immunodeficiency virus 1, IIIB, MT4, 120 h
[5] = system: Human immunodeficiency virus 1; assay: Antiviral activity against wild type HIV-1 IIIB harboring reverse transcriptase K103N mutant infected in human MT4 cells assessed as protection against virus-induced cytopathic effect incubated for 5 days by MTT assay; format: functional, organism-based; settings: Human immunodeficiency virus 1, IIIB, MT4, 120 h
[6] = Resistant factor, ratio of EC50 for antiviral activity against HIV-1 IIIB harboring reverse transcriptase […] mutant to EC50 for antiviral activity against wild type HIV-1 IIIB; format: functional
[7] = Selectivity index, ratio of CC50 for cytotoxicity against human MT4 cells to EC50 for antiviral activity against wild type HIV-1 IIIB infected in human MT4 cells; format: toxicity, cell-based; settings: read-out: Ratio CC50/EC50
[8] = system: Human immunodeficiency virus 1; assay: Antiviral activity against wild type HIV-1 IIIB infected in human MT4 cells assessed as protection against virus-induced cytopathic effect incubated for 5 days by MTT assay; format: functional, organism-based; settings: Human immunodeficiency virus 1, IIIB, MT4, 120 h
[9] = Resistant factor, ratio of EC50 for antiviral activity against HIV-1 IIIB harboring reverse transcriptase E138K mutant to EC50 for antiviral activity against wild type HIV-1 IIIB; format: functional
[10] = Cytotoxicity against human MT4 cells assessed as reduction in cell viability incubated for 5 days by MTT assay; format: toxicity, cell-based; settings: time 5 day
[11] = Resistant factor, ratio of EC50 for antiviral activity against HIV-1 IIIB harboring reverse transcriptase Y181C mutant to EC50 for antiviral activity against wild type HIV-1 IIIB; format: functional
[12] = Resistant factor, ratio of EC50 for antiviral activity against HIV-1 IIIB harboring reverse transcriptase K103N mutant to EC50 for antiviral activity against wild type HIV-1 IIIB; format: functional
[13] = system: Human immunodeficiency virus 1; assay: Antiviral activity against wild type HIV-1 IIIB harboring reverse transcriptase Y181C mutant infected in human MT4 cells assessed as protection against virus-induced cytopathic effect incubated for 5 days by MTT assay; format: functional, organism-based; settings: Human immunodeficiency virus 1, IIIB, MT4, 120 h
[14] = system: Human immunodeficiency virus 1; assay: Antiviral activity against wild type HIV-1 IIIB harboring reverse transcriptase Y188L mutant infected in human MT4 cells assessed as protection against virus-induced cytopathic effect incubated for 5 days by MTT assay; format: functional, organism-based; settings: Human immunodeficiency virus 1, IIIB, MT4, 120 h
Cytochrome P450 2C19 = Cytochrome P450 2C19 (Homo sapiens, UniProt P33261); assay: Inhibition of CYP2C19 in human liver microsomes using S-mephenytoin as substrate incubated for 15 to 45 mins in presence of NADPH; format: ADME, Microsome
Chain of Cytochrome P450 2C19 (P33261 whole entry): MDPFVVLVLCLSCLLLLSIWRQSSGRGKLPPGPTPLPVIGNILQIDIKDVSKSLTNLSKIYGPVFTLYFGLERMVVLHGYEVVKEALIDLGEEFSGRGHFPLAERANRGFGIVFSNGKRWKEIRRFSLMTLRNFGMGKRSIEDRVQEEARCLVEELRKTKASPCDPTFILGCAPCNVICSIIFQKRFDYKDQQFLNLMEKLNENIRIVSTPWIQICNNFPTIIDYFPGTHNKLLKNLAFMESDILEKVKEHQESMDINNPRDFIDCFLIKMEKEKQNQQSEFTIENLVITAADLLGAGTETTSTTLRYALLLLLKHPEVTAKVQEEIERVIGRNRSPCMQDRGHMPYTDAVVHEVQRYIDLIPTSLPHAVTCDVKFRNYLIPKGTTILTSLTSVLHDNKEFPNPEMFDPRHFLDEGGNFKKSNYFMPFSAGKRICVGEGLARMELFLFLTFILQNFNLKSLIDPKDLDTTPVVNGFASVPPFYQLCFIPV

| Compound | Ratio EC50 [1] | EC50 [2] | IC50 [3] | EC50 [4] | EC50 [5] | Ratio EC50 [6] | selectivity ratio [7] | EC50 [8] | Ratio EC50 [9] | CC50 at 120 h [10] | Ratio EC50 [11] | Ratio EC50 [12] | EC50 [13] | EC50 [14] | IC50 (Cytochrome P450 2C19) |
| --- | --- | --- | --- | --- | --- | --- | --- | --- | --- | --- | --- | --- | --- | --- | --- |
| COCCNC(=O)c1cnc(Nc2ccc(C#N)cc2)nc1Oc1c(C)cc(-c2ccc(C#N)cc2)cc1C | 33 | 74 nM | 128 nM | 20 nM | 33 nM | 13 | 28100 | 5 nM | 3.5 | 161000 nM | 10 | 5.8 | 58 nM | 190 nM | – |
| C=C(C)[C@@H]1CCC2=CC(=O)C[C@@H](C)[C@]2(C)C1 [NOOTKATONE] | – | – | – | – | – | – | – | – | – | – | – | – | – | – | 1570 nM |
| Cc1cc(-c2ccc(C#N)cc2)cc(C)c1Oc1nc(Nc2ccc(C#N)cc2)ncc1C(=O)NC1CCCC1 | 32 | 1780 nM | 329 nM | 573 nM | 960 nM | 12 | > 1630 | 145 nM | 4 | > 236000 nM | 23 | 6.6 | 3350 nM | 4650 nM | – |
| CCCNC(=O)c1cnc(Nc2ccc(C#N)cc2)nc1Oc1c(C)cc(-c2ccc(C#N)cc2)cc1C | 21 | 55 nM | 191 nM | 39 nM | 31 nM | 4.2 | 14700 | 13 nM | 3 | 86600 nM | 15 | 2.4 | 196 nM | 275 nM | – |
| N#Cc1ccc(Nc2ncc(C(N)=O)c(Oc3ccc(-c4ccc(C#N)cc4)cc3Cl)n2)cc1 | 2150 | 76000 nM | 28 nM | 821 nM | 5530 nM | 746 | > 2650 | 102 nM | 8 | > 270000 nM | 1261 | 54 | 129000 nM | 219000 nM | – |
| Cc1cc(-c2ccc(C#N)cc2)cc(C)c1Oc1nc(Nc2ccc(C#N)cc2)ncc1C(=O)NC1CCCCC1 | 30 | 1680 nM | 329 nM | 817 nM | 1330 nM | 9.7 | > 1320 | 174 nM | 4.7 | > 230000 nM | 26 | 7.6 | 4460 nM | 5140 nM | – |
| N#Cc1ccc(Nc2ncc(C(N)=O)c(Oc3c(F)cc(-c4ccc(C#N)cc4)cc3F)n2)cc1 | 1178 | 1210 nM | 21 nM | 159 nM | 175 nM | 40 | > 1780 | 30 nM | 5.3 | > 53400 nM | 362 | 5.8 | 10900 nM | 35300 nM | – |
| Cc1cc(-c2ccc(C#N)cc2)cc(C)c1Oc1nc(Nc2ccc(C#N)cc2)ncc1C(=O)NCC1CC1 | 19 | 872 nM | 294 nM | 248 nM | 445 nM | 8.5 | 2060 | 102 nM | 2.4 | 210000 nM | 11 | 4.4 | 1160 nM | 1900 nM | – |
| Cc1cc(-c2ccc(C#N)cc2)cc(C)c1Oc1nc(Nc2ccc(C#N)cc2)ncc1C(=O)NC(C)C | 15 | 144 nM | 199 nM | 71 nM | 82 nM | 3.9 | 1750 | 37 nM | 1.9 | 64700 nM | 9 | 2.2 | 334 nM | 563 nM | – |
| Cc1cc(-c2ccc(C#N)cc2)ccc1Oc1nc(Nc2ccc(C#N)cc2)ncc1C(N)=O | 230 | 994 nM | 19 nM | 115 nM | 94 nM | 32 | > 9000 | 31 nM | 3.7 | > 280000 nM | 140 | 3 | 4340 nM | 7120 nM | – |
| N#Cc1ccc(Nc2ncc(C(N)=O)c(Oc3ccc(-c4ccc(C#N)cc4)cc3F)n2)cc1 | >1713 | 231000 nM | 25 nM | 1610 nM | 63400 nM | 1429 | > 1720 | 162 nM | 9.9 | > 278000 nM | >1713 | 391 | > 278000 nM | > 278000 nM | – |
| Cc1cc(-c2ccc(C#N)cc2)cc(C)c1Oc1nc(Nc2ccc(C#N)cc2)ncc1C(N)=O | 9.4 | 22 nM | 26 nM | 39 nM | 26 nM | 1.4 | > 2760 | 16 nM | 2.4 | > 43400 nM | 13 | 1.6 | 206 nM | 150 nM | – |
| Cc1cc(-c2ccc(C#N)cc2)cc(C)c1Oc1nc(Nc2ccc(C#N)cc2)ncc1C(=O)NC1CC1 | 19 | 51 nM | 111 nM | 31 nM | 32 nM | 4.6 | 10600 | 11 nM | 2.8 | 116000 nM | 14 | 2.9 | 157 nM | 209 nM | – |
| Cc1cc(-c2ccc(C#N)cc2)cc(C)c1Oc1nc(Nc2ccc(C#N)cc2)ncc1C(=O)NC1CCC1 | 20 | 396 nM | 327 nM | 171 nM | 308 nM | 6.1 | > 3750 | 65 nM | 2.6 | > 243000 nM | 16 | 4.7 | 1020 nM | 1320 nM | – |
| CCNC(=O)c1cnc(Nc2ccc(C#N)cc2)nc1Oc1c(C)cc(-c2ccc(C#N)cc2)cc1C | 14 | 25 nM | 135 nM | 28 nM | 13 nM | 3.7 | 22500 | 6 nM | 4.2 | 151000 nM | 10 | 1.9 | 68 nM | 95 nM | – |
| Cc1cc(-c2ccc(C#N)cc2)cc(Cl)c1Oc1nc(Nc2ccc(C#N)cc2)ncc1C(N)=O | 2.8 | 49 nM | 66 nM | 5 nM | 31 nM | 1.5 | > 1270 | 33 nM | 0.2 | > 41600 nM | 1.1 | 0.9 | 35 nM | 94 nM | – |
